Laboratory results from ChEMBL document CHEMBL1138151, “Design and synthesis of promiscuous high-affinity monoamine transporter ligands: unraveling transporter selectivity” (J Med Chem, 2006).

How the values were obtained:
[1] = biological target: T1, Monoamine transporters; serotonin & dopamine (Homo sapiens) (UniProt P31645+Q01959); test: Selectivity for SERT over DAT; assay type: protein assay
[2] = biological target: T2, Sodium-dependent dopamine transporter (Homo sapiens, UniProt Q01959); test: Inhibition of [3H]DA uptake
[3] = biological target: T3, Sodium-dependent noradrenaline transporter (Homo sapiens, UniProt P23975); test: Displacement of [3H]nisoxetine from NET
[4] = biological target: T4, Sodium-dependent serotonin transporter (Homo sapiens, UniProt P31645); test: Displacement of [125I]RTI-55 from SERT
[5] = Selectivity for NET over DAT; assay type: protein assay; settings: Homo sapiens
[6] = biological target: T1, Monoamine transporters; serotonin & dopamine (Homo sapiens); test: Ratio for uptake of 5HT over DA; assay type: protein assay
[7] = biological target: T2, Sodium-dependent dopamine transporter; test: Displacement of [125I]RTI-55 from DAT
[8] = biological target: Monoamine transporters; Norepinephrine & dopamine (Homo sapiens) (UniProt Q01959+P23975); test: Ratio for uptake of NE over DA; assay type: protein assay
[9] = biological target: T3, Sodium-dependent noradrenaline transporter; test: Inhibition of [3H]NE uptake
[10] = biological target: T4, Sodium-dependent serotonin transporter; test: Inhibition of [3H]5-HT uptake

T2 sequence (Q01959 whole entry): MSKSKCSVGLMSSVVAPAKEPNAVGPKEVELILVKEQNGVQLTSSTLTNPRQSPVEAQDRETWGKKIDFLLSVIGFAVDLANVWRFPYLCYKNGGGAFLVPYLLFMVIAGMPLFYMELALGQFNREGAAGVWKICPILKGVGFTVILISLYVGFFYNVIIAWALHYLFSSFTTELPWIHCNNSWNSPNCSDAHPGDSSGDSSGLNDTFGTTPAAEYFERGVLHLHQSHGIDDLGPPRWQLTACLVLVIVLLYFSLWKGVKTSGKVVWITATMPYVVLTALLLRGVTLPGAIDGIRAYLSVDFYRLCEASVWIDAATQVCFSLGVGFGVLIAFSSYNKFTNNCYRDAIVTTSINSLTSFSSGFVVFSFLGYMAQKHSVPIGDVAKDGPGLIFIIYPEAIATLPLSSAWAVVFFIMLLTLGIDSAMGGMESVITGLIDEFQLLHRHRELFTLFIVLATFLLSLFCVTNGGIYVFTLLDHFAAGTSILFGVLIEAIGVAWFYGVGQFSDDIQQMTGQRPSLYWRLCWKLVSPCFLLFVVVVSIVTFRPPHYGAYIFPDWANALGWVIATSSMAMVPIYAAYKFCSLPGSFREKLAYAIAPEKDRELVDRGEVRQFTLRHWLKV
Monoamine transporters; Norepinephrine & dopamine (Homo sapiens), sequence (P23975 whole entry, looked up): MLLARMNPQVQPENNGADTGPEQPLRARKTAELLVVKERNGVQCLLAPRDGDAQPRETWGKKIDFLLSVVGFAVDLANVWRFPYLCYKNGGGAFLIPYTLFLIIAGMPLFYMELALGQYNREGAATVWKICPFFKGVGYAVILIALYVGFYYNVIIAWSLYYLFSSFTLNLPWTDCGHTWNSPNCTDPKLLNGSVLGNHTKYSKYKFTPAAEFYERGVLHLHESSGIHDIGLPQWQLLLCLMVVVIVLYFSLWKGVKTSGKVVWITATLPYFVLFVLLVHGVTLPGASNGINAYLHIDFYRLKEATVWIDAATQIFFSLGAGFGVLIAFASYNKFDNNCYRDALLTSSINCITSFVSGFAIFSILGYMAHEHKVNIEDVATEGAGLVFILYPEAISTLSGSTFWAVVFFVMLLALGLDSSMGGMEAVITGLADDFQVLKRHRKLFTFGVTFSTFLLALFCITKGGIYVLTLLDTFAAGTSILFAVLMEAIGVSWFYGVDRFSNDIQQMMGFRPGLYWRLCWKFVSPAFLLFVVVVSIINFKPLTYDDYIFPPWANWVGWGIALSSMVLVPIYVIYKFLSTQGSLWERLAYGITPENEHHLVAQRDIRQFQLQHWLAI
Monoamine transporters; Norepinephrine & dopamine (Homo sapiens), sequence (Q01959 whole entry, looked up): as the sequence (Q01959 whole entry) above
T3 sequence (P23975 whole entry): as the sequence (P23975 whole entry, looked up) above
T4 sequence (P31645 whole entry): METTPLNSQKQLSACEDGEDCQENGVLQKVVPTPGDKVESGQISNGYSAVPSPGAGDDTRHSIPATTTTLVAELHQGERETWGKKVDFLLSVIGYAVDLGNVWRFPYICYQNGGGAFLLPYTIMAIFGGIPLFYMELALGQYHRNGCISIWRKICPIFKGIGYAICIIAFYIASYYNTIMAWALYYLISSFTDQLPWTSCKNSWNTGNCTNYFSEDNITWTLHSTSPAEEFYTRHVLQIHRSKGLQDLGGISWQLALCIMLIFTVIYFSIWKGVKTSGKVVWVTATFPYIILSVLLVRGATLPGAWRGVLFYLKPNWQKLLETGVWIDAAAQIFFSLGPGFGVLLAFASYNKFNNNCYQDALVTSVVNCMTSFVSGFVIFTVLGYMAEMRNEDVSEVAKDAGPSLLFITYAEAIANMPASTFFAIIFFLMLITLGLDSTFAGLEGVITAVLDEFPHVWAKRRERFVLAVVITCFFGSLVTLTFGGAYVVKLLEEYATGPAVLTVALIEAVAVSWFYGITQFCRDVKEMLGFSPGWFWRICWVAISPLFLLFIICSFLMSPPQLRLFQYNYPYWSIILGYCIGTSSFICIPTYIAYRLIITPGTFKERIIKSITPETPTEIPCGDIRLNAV
T1 sequence (P31645 whole entry, looked up): as the sequence (P31645 whole entry) above
T1 sequence (Q01959 whole entry, looked up): as the sequence (Q01959 whole entry) above

| SMILES | Ratio Ki [1] | Ki [2] [µM] | Ki [3] [µM] | Ki [4] [µM] | Ratio Ki [5] | Ratio Ki [6] | Ki [7] [µM] | Ratio Ki [8] | Ki [9] [µM] | Ki [10] [µM] |
| --- | --- | --- | --- | --- | --- | --- | --- | --- | --- | --- |
| N[C@@H](Cc1ccccc1)CN1CCC(CCOC(c2ccc(F)cc2)c2ccc(F)cc2)CC1 | 12 | 0.013 | 0.851 | 0.076 | 135 | 18 | 0.0063 | 26 | 0.338 | 0.228 |
| C[C@@H](CCN1CCC(CCOC(c2ccc(F)cc2)c2ccc(F)cc2)CC1)c1ccccc1 | 22 | 0.0021 | 0.34 | 0.03 | 259 | 36 | 0.0013 | 19 | 0.04 | 0.075 |
| N[C@H](Cc1ccccc1)CN1CCC(CCOC(c2ccc(F)cc2)c2ccc(F)cc2)CC1 | 6 | 0.017 | 0.941 | 0.068 | 78 | 13 | 0.012 | 24 | 0.402 | 0.229 |
| O[C@H](CCN1CCC(CCOC(c2ccc(F)cc2)c2ccc(F)cc2)CC1)c1ccccc1 | 51 |  | 0.33 | 0.043 | 394 |  | 0.0008 |  |  |  |
| O[C@H](Cc1ccccc1)CN1CCC(CCOC(c2ccc(F)cc2)c2ccc(F)cc2)CC1 | 18 | 0.0017 | 1.22 | 0.091 | 240 | 24 | 0.0051 | 84 | 0.143 | 0.041 |
| O[C@H](CCN1CCC(CCOC(c2ccccc2)c2ccccc2)CC1)c1ccccc1 | 158 |  | > 5.6 | 0.28 | > 3200 |  | 0.0018 |  |  |  |
| O[C@@H](CCc1ccccc1)CN1CCC(CCOC(c2ccc(F)cc2)c2ccc(F)cc2)CC1 | 24 |  | 0.736 | 0.038 | 457 |  | 0.0016 |  |  |  |
| Fc1ccc(C(OCCC2CCN(C[C@@H]3C[C@H]3c3ccccc3)CC2)c2ccc(F)cc2)cc1 | 32 |  | 0.947 | 0.016 | 1890 |  | 0.0005 |  |  |  |
| C[C@@H](Cc1ccccc1)CN1CCC(CCOC(c2ccc(F)cc2)c2ccc(F)cc2)CC1 | 13 | 0.0038 | 0.38 | 0.1 | 47 | 33 | 0.008 | 42 | 0.16 | 0.124 |
| O[C@H](Cc1ccccc1)CN1CCC(CCOC(c2ccccc2)c2ccccc2)CC1 | 42 |  | 0.785 | 0.286 | 114 |  | 0.0069 |  |  |  |
| O[C@@H](Cc1ccccc1)CN1CCC(CCOC(c2ccc(F)cc2)c2ccc(F)cc2)CC1 | 205 |  | 0.361 | 0.082 | 902 |  | 0.0004 |  |  |  |
| O[C@@H](CCN1CCC(CCOC(c2ccccc2)c2ccccc2)CC1)c1ccccc1 | 107 |  | 0.21 | 0.23 | 101 |  | 0.0021 |  |  |  |
| O[C@@H](Cc1ccccc1)CN1CCC(CCOC(c2ccccc2)c2ccccc2)CC1 | 332 |  | 0.485 | 0.45 | 359 |  | 0.0014 |  |  |  |
| O[C@H](CCc1ccccc1)CN1CCC(CCOC(c2ccc(F)cc2)c2ccc(F)cc2)CC1 | 6 | 0.0014 | 0.46 | 0.013 | 215 | 14 | 0.0021 | 56 | 0.079 | 0.019 |
| C[C@H](Cc1ccccc1)CN1CCC(CCOC(c2ccc(F)cc2)c2ccc(F)cc2)CC1 | 61 |  | 0.103 | 0.053 | 118 |  | 0.0009 |  |  |  |
| O[C@@H](CCN1CCC(CCOC(c2ccc(F)cc2)c2ccc(F)cc2)CC1)c1ccccc1 | 26 |  | 0.44 | 0.022 | 515 |  | 0.0009 |  |  |  |
| Fc1ccc(C(OCCC2CCN(CC3=Cc4ccccc4CC3)CC2)c2ccc(F)cc2)cc1 | 118 |  | 0.043 | 0.127 | 40 |  | 0.0011 |  |  |  |
| C[C@H](CCN1CCC(CCOC(c2ccc(F)cc2)c2ccc(F)cc2)CC1)c1ccccc1 | 26 |  | 0.56 | 0.058 | 253 |  | 0.0022 |  |  |  |
| Fc1ccc(C(OCCC2CCN(C[C@H]3C[C@@H]3c3ccccc3)CC2)c2ccc(F)cc2)cc1 | 97 |  | 0.359 | 0.136 | 256 |  | 0.0014 |  |  |  |
